In ChEMBL document CHEMBL1156511, “Suppressor mutations in the transmembrane segments of P-glycoprotein promote maturation of processing mutants and disrupt a subset of drug-binding sites” (J Biol Chem, 2007):
The source made the active and inactive calls. No cut-off for these calls is given here.

Assays:
Type in all cases: cell-based
HEK293 [1] = test: Inhibition of cross-linking of human Pgp TM1 L65R/TM6 L339C/TM7 F728 mutant expressed in HEK293 cells assessed as drug level causing 50% inhibition of cross linking by immunoblot
HEK293 [2] = test: Inhibition of cross-linking of human Pgp TM6 L339C/TM7 F728C mutant expressed in HEK293 cells assessed as drug level causing 50% inhibition of cross linking by immunoblot
[3] = target: ATP-dependent translocase ABCB1 (Homo sapiens, UniProt P08183, F343R/F728C/L339C); test: Inhibition of cross-linking of human Pgp TM6 F343R/TM6 L339C/TM7 F728C mutant expressed in HEK293 cells assessed as drug level causing 50% inhibition of cross linking by immunoblot; conditions: read-out: Activity
[4] = target: ATP-dependent translocase ABCB1 (Homo sapiens, UniProt P08183, F728C/I306R/L339C); test: Inhibition of cross-linking of human Pgp TM5 I306R/TM6 L339C/TM7 F728C mutant expressed in HEK293 cells assessed as drug level causing 50% inhibition of cross linking by immunoblot; conditions: read-out: Activity
[5] = target: ATP-dependent translocase ABCB1 (Homo sapiens, UniProt P08183, F728C/L339C/T199R); test: Inhibition of cross-linking of human Pgp TM3 T199R/TM6 L339C/TM7 F728C mutant expressed in HEK293 cells assessed as drug level causing 50% inhibition of cross linking by immunoblot; conditions: read-out: Activity
[6] = target: ATP-dependent translocase ABCB1 (Homo sapiens, UniProt P08183, Q195C); test: Increase in ATPase activity of human histidine-tagged Pgp TM3 Q195C mutant expressed in HEK293 cells at 2 mM relative to control; conditions: hek293, 2000 µM
[7] = target: ATP-dependent translocase ABCB1 (Homo sapiens, UniProt P08183, S196C); test: Increase in ATPase activity of human histidine-tagged Pgp TM3 S196C mutant expressed in HEK293 cells at 2 mM relative to control; conditions: hek293, 2000 µM
[8] = target: ATP-dependent translocase ABCB1 (Homo sapiens, UniProt P08183, I190C); test: Increase in ATPase activity of human histidine-tagged Pgp TM3 I190C mutant expressed in HEK293 cells at 2 mM relative to control; conditions: hek293, 2000 µM
[9] = target: T1, ATP-dependent translocase ABCB1 (Homo sapiens, UniProt P08183, T199C); test: Increase in ATPase activity of human histidine-tagged Pgp TM3 mutant T199C expressed in HEK293 cells at 2 mM relative to control; conditions: hek293, 2000 µM
[10] = target: ATP-dependent translocase ABCB1 (Homo sapiens, UniProt P08183, I205C); test: Increase in ATPase activity of human histidine-tagged Pgp TM3 I205C mutant expressed in HEK293 cells at 2 mM relative to control; conditions: hek293, 2000 µM
[11] = target: ATP-dependent translocase ABCB1 (Homo sapiens, UniProt P08183, F204C); test: Increase in ATPase activity of human histidine-tagged Pgp TM3 F204C mutant expressed in HEK293 cells at 2 mM relative to control; conditions: hek293, 2000 µM
[12] = target: ATP-dependent translocase ABCB1 (Homo sapiens, UniProt P08183, T209C); test: Increase in ATPase activity of human histidine-tagged Pgp TM3 T209C mutant expressed in HEK293 cells at 2 mM relative to control; conditions: hek293, 2000 µM
[13] = target: ATP-dependent translocase ABCB1 (Homo sapiens, UniProt P08183, G207C); test: Increase in ATPase activity of human histidine-tagged Pgp TM3 G207C mutant expressed in HEK293 cells at 2 mM relative to control; conditions: hek293, 2000 µM
[14] = target: ATP-dependent translocase ABCB1 (Homo sapiens, UniProt P08183, F193C); test: Increase in ATPase activity of human histidine-tagged Pgp TM3 F193C mutant expressed in HEK293 cells at 2 mM relative to control; conditions: hek293, 2000 µM
[15] = target: T2, ATP-dependent translocase ABCB1 (Homo sapiens, UniProt P08183, C137A/C431A/C717A/C956A/C1074A/C1125A/C1227A); test: Increase in ATPase activity of human histidine-tagged Pgp Cys-less mutant expressed in HEK293 cells at 2 mM relative to control; conditions: hek293, 2000 µM
[16] = target: ATP-dependent translocase ABCB1 (Homo sapiens, UniProt P08183, G203C); test: Increase in ATPase activity of human histidine-tagged Pgp TM3 G203C mutant expressed in HEK293 cells at 2 mM relative to control; conditions: hek293, 2000 µM
[17] = target: ATP-dependent translocase ABCB1 (Homo sapiens, UniProt P08183, F200C); test: Increase in ATPase activity of human histidine-tagged Pgp TM3 F200C mutant expressed in HEK293 cells at 2 mM relative to control; conditions: hek293, 2000 µM
[18] = target: ATP-dependent translocase ABCB1 (Homo sapiens, UniProt P08183, A198C); test: Increase in ATPase activity of human histidine-tagged Pgp TM3 A198C mutant expressed in HEK293 cells at 2 mM relative to control; conditions: hek293, 2000 µM
[19] = target: T1, ATP-dependent translocase ABCB1; test: Activation of ATPase activity of human histidine-tagged Pgp TM3 T199C mutant expressed in HEK293 cells assessed as drug level causing maximal activation
[20] = target: ATP-dependent translocase ABCB1 (Homo sapiens, UniProt P08183, F208C); test: Increase in ATPase activity of human histidine-tagged Pgp TM3 F208C mutant expressed in HEK293 cells at 2 mM relative to control; conditions: hek293, 2000 µM
[21] = target: ATP-dependent translocase ABCB1 (Homo sapiens, UniProt P08183, G191C); test: Increase in ATPase activity of human histidine-tagged Pgp TM3 G191C mutant expressed in HEK293 cells at 2 mM relative to control; conditions: hek293, 2000 µM
[22] = target: ATP-dependent translocase ABCB1 (Homo sapiens, UniProt P08183, F194C); test: Increase in ATPase activity of human histidine-tagged Pgp TM3 F194C mutant expressed in HEK293 cells at 2 mM relative to control; conditions: hek293, 2000 µM
[23] = target: ATP-dependent translocase ABCB1 (Homo sapiens, UniProt P08183, T202C); test: Increase in ATPase activity of human histidine-tagged Pgp TM3 T202C mutant expressed in HEK293 cells at 2 mM relative to control; conditions: hek293, 2000 µM
[24] = target: ATP-dependent translocase ABCB1 (Homo sapiens, UniProt P08183, F201C); test: Increase in ATPase activity of human histidine-tagged Pgp TM3 F201C mutant expressed in HEK293 cells at 2 mM relative to control; conditions: hek293, 2000 µM
[25] = target: ATP-dependent translocase ABCB1 (Homo sapiens, UniProt P08183, M192C); test: Increase in ATPase activity of human histidine-tagged Pgp TM3 M192C mutant expressed in HEK293 cells at 2 mM relative to control; conditions: hek293, 2000 µM
[26] = target: ATP-dependent translocase ABCB1 (Homo sapiens, UniProt P08183, M197C); test: Increase in ATPase activity of human histidine-tagged Pgp TM3 M197C mutant expressed in HEK293 cells at 2 mM relative to control; conditions: hek293, 2000 µM
[27] = target: ATP-dependent translocase ABCB1 (Homo sapiens, UniProt P08183, V206C); test: Increase in ATPase activity of human histidine-tagged Pgp TM3 V206C mutant expressed in HEK293 cells at 2 mM relative to control; conditions: hek293, 2000 µM
[28] = target: T1, ATP-dependent translocase ABCB1; test: Activation of ATPase activity of human histidine-tagged Pgp TM3 T199C mutant expressed in HEK293 cells assessed as drug level causing half-maximal activation; conditions: read-out: Activity
[29] = target: T2, ATP-dependent translocase ABCB1; test: Activation of ATPase activity of human histidine-tagged Cys-less Pgp mutant expressed in HEK293 cells assessed as half maximal stimulation at 110 uM; conditions: hek293, 110 µM
HEK293 [30] = test: Activation of ATPase activity of human Pgp TM7 Cys728 mutant expressed in HEK293 cells at 3 mM relative to control

T1 sequence (P08183 whole entry T199C): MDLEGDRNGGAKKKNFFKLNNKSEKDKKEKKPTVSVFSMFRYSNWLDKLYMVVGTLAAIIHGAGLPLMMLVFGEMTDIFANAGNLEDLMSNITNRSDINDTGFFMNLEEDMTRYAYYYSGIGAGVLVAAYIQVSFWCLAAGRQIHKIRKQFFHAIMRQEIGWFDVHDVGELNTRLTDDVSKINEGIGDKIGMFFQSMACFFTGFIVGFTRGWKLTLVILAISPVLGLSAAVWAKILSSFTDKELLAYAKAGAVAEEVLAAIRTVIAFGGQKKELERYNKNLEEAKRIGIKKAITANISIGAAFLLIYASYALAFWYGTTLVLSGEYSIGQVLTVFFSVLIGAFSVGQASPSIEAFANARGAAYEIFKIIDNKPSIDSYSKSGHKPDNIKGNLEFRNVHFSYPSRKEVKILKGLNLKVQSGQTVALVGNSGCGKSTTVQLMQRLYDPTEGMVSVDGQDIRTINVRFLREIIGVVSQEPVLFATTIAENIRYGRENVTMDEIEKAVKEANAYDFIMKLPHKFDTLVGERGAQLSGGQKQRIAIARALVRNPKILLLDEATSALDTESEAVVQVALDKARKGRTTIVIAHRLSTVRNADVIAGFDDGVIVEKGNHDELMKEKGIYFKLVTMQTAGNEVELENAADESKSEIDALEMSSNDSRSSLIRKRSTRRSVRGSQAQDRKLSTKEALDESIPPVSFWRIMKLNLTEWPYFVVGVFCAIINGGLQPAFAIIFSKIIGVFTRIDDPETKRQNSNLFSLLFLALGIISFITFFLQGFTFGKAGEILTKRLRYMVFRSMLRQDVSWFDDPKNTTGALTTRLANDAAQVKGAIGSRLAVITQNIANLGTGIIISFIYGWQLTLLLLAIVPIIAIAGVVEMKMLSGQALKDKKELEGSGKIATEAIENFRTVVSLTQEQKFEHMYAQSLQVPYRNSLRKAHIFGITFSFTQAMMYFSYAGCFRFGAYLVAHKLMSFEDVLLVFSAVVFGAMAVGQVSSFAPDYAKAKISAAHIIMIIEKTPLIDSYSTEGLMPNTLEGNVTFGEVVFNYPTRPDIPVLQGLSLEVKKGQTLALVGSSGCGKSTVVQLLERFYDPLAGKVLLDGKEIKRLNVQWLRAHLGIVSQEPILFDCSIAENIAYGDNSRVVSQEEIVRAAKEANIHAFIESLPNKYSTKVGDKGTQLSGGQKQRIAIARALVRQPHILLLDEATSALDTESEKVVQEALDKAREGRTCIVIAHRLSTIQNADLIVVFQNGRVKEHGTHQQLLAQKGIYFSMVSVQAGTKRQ
Sequence of ATP-dependent translocase ABCB1 (Homo sapiens, UniProt P08183, Q195C) (P08183 whole entry Q195C): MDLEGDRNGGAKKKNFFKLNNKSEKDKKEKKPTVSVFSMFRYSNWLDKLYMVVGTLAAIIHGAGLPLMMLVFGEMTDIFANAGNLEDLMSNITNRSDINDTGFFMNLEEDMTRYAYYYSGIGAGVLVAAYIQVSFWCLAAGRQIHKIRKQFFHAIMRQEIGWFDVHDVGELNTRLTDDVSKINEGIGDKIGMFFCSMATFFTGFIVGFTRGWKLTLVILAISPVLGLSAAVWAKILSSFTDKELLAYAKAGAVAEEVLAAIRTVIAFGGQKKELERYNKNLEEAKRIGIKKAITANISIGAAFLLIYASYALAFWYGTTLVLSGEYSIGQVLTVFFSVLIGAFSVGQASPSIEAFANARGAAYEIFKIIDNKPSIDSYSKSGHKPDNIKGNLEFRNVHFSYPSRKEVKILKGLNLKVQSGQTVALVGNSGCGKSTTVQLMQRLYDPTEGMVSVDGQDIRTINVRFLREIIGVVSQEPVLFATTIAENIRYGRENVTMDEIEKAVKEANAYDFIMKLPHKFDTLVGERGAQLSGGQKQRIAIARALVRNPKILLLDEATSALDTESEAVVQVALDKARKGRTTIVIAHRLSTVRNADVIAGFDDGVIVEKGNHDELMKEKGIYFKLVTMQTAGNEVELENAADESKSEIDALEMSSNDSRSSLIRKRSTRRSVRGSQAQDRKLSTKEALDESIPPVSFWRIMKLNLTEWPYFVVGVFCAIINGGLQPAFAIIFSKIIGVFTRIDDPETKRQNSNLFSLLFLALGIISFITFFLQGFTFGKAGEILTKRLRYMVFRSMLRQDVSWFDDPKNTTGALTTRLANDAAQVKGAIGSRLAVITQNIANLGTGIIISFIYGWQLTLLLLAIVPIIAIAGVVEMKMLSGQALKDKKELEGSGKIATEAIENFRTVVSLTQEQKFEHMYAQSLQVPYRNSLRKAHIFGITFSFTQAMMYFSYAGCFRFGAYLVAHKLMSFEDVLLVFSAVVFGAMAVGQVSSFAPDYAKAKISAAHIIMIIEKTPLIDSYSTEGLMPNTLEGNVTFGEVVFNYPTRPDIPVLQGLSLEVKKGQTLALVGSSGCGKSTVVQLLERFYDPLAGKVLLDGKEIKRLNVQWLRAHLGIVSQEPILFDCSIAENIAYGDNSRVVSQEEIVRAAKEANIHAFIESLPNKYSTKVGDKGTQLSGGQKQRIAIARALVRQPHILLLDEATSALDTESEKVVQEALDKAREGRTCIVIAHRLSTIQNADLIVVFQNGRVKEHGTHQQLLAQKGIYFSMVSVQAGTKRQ
T2 sequence (P08183 whole entry C137A/C431A/C717A/C956A/C1074A/C1125A/C1227A): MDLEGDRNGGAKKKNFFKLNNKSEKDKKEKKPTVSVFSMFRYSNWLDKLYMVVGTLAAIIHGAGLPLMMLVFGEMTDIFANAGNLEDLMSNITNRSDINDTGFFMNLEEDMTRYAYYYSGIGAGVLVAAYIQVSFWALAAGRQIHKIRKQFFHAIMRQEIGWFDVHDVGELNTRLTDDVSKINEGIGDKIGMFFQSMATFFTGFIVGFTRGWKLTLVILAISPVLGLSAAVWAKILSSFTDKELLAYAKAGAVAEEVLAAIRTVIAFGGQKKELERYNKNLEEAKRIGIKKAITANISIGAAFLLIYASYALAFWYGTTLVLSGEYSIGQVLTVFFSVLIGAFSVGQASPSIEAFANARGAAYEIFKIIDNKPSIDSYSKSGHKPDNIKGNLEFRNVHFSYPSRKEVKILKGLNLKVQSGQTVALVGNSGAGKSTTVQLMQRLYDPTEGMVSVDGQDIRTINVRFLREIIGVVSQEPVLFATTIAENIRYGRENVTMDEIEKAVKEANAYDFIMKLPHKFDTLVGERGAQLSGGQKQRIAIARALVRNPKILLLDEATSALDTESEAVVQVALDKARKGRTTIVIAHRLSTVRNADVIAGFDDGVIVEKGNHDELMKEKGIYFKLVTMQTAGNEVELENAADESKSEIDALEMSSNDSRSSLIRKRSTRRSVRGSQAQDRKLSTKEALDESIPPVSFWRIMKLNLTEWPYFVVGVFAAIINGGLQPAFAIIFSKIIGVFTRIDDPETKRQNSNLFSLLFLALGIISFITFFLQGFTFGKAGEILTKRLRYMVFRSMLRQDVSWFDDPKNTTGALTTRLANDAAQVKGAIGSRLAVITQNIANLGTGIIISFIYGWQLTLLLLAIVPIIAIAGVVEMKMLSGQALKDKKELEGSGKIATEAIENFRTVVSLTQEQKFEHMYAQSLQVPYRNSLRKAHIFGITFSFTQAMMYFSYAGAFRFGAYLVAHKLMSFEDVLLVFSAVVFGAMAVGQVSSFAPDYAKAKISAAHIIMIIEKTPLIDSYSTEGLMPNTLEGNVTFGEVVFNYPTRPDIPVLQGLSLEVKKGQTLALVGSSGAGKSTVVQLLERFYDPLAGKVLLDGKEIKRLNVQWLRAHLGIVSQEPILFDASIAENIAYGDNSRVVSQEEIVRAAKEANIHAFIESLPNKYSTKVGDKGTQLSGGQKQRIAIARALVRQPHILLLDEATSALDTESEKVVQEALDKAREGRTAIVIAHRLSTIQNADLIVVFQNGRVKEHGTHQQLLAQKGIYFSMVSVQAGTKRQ
Sequence of ATP-dependent translocase ABCB1 (Homo sapiens, UniProt P08183, I190C) (P08183 whole entry I190C): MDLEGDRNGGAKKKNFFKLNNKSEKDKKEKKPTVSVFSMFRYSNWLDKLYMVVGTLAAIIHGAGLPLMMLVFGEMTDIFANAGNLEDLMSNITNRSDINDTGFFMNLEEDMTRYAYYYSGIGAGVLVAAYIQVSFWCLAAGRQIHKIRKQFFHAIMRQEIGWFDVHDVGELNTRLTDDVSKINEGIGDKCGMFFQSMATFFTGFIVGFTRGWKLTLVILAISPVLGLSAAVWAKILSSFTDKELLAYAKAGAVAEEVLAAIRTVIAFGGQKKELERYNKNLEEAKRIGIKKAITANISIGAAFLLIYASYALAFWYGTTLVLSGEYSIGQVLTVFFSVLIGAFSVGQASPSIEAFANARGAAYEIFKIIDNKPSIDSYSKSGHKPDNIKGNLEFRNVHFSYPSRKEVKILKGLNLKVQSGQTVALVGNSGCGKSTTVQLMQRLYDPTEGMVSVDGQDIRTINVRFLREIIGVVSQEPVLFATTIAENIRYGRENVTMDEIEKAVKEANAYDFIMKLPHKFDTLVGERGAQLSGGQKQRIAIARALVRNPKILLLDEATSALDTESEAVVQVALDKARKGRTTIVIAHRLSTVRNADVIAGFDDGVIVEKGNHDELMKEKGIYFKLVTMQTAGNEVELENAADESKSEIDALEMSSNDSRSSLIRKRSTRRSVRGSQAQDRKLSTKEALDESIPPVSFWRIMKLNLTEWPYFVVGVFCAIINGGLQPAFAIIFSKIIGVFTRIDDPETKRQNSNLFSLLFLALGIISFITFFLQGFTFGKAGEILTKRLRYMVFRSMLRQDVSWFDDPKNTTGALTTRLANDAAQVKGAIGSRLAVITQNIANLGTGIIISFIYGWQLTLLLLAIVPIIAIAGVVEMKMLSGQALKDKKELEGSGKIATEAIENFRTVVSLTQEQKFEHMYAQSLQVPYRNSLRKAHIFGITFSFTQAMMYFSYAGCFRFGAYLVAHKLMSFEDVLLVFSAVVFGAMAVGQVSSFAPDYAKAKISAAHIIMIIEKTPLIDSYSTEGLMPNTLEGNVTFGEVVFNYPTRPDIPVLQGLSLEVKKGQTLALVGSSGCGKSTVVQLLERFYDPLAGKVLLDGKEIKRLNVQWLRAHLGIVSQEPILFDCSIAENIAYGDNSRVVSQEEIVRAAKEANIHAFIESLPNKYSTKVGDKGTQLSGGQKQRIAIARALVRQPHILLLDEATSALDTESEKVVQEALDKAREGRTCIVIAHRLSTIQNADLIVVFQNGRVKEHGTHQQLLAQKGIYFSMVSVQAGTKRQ

For `CC[C@]1(O)C[C@@H]2CN(CCc3c([nH]c4ccccc34)[C@@](C(=O)OC)(c3cc4c(cc3OC)N(C)[C@H]3[C@@](O)(C(=O)OC)[C@H](OC(C)=O)[C@]5(CC)C=CCN6CC[C@]43[C@@H]65)C2)C1`, the Activity (HEK293 [1]) was 40 µM and the Activity (HEK293 [2]) was 0.7 µM.

`CCN(CC)c1ccc2c(-c3ccccc3C(C)=O)c3ccc(=[N+](CC)CC)cc-3oc2c1` showed an Activity (HEK293 [1]) of 65 µM and an Activity (HEK293 [2]) of 88 µM.

With `CCN(CC)c1ccc2c(-c3ccccc3C(=O)O)c3ccc(=[N+](CC)CC)cc-3oc2c1` the IC50 [3] was 320 µM, the IC50 [4] was 96 µM and the IC50 [5] was 77 µM. It also gave an Activity [6] of 6.4.

Compound `CCN(CC)c1ccc2c(-c3ccc(S(=O)(=O)NCCSS(C)(=O)=O)cc3S(=O)(=O)O)c3ccc(=[N+](CC)CC)cc-3oc2c1.[Cl-]` has an Activity [7] of under 1.5, an Activity [8] of under 1.5 and an Activity [9] of under 6.7. It also gave an Activity [10] of under 1.5, an Activity [11] of under 1.5 and an Activity [12] of under 1.5. For the same compound, the Activity [13] was under 1.5, the Activity [14] was under 1.5 and the Activity [15] was under 1.5. It also gave an Activity [16] of under 1.5, an Activity [6] of under 1.5 and an Activity [17] of under 1.5. For the same compound, the Activity [18] was under 1.5, the Activity [19] was 2 mM and the Activity [20] was under 1.5. The Activity [21] was under 1.5, the Activity [22] was under 1.5 and the Activity [23] was under 1.5. The Activity [24] was under 1.5, the Activity [25] was under 1.5 and the Activity [26] was under 1.5. It also gave an Activity [27] of under 1.5, an EC50 [28] of 880 µM and an Activity [29] of 6.2.

With `COc1ccc(CC[N+](C)(CCCC(C#N)(c2ccc(OC)c(OC)c2)C(C)C)CCSS(C)(=O)=O)cc1OC` (stereo not drawn) the Activity (HEK293 [30]) was “inactive”.
